Laboratory results as given in patent US8173813B2, “Quinolone and tetrahydroquinolone and related compounds having NOS inhibitory activity” (NeurAxon, Inc., priority 2007, dated 2012).

Columns and labels:
[1] = target: Nitric oxide synthase (neuronal, human recombinant) nNOS (Homo sapiens, UniProt P29475); test: Human nNOS enzyme assay ([3H]L-arginine to [3H]L-citrulline); type: biochemical
[2] = target: Nitric oxide synthase (endothelial, human recombinant) eNOS (Homo sapiens, UniProt P29474); test: Human eNOS enzyme assay ([3H]L-arginine to [3H]L-citrulline); type: biochemical; conditions: human recombinant eNOS; values without parentheses; read-out: heNOS IC50
[3] = target: Recombinant human inducible NOS (iNOS) (Homo sapiens, UniProt P35228); test: Human iNOS enzyme assay, radiometric; type: biochemical; conditions: read-out: hiNOS IC50
nNOS (Rat) = nNOS (Rat) (Rattus norvegicus, UniProt P29476); test: nNOS (Rat) enzyme assay; type: biochemical; conditions: rodent enzymes; values in parentheses
Method: nNOS (Rat), eNOS (Rat) and iNOS (Mouse) Enzyme Assay Recombinant rat or mouse NO synthases (iNOS, eNOS, nNOS) were expressed in Sf9 cells (Sigma), 36 mg prot/ml (Bradford). […] Inhibition of NOS was determined by measuring the formation of L-[3H] citrulline from L-[3H] arginine. […] Stop buffer:100 mM Hepes, pH 5.5, 3 mM EDTA, 3 mM EGTA.

eNOS (Rat) = eNOS (Rat) (Rattus norvegicus, UniProt Q62600); test: eNOS (Rat) enzyme assay; type: biochemical; conditions: values in parentheses, read-out: eNOS IC50 (rodent data in parentheses)
[4] = tested on: Rats with L5/L6 spinal nerve ligation; test: Chung Spinal Nerve Ligation model, thermal hyperalgesia; type: in vivo, rat; conditions: standard dosings 3, 10, and 30 mg/kg injected IP
[5] = tested on: Rats with L5/L6 spinal nerve ligation; test: Chung Spinal Nerve Ligation model, tactile allodynia; type: in vivo, rat; conditions: standard dosings 3, 10, and 30 mg/kg injected IP
[6] = tested on: Male, Sprague Dawley rats; test: Porreca model of allodynia (inflammatory soup onto the dura, hindpaw von Frey); type: in vivo, rat
[7] = tested on: patients with cardiogenic shock; conditions: randomized trial of 30 patients; reduced from 67%; cited from earlier work
migraine patients [8] = conditions: human migraine; single i.v. administration; cited from earlier work
[9] = tested on: patients with persistent shock; conditions: 11 patients with persistent shock; up to 30 days; cited from earlier work
migraine patients [10] = conditions: human migraine; open pilot study; cited from earlier work

Chain of Nitric oxide synthase (neuronal, human recombinant) nNOS (P29475 whole entry): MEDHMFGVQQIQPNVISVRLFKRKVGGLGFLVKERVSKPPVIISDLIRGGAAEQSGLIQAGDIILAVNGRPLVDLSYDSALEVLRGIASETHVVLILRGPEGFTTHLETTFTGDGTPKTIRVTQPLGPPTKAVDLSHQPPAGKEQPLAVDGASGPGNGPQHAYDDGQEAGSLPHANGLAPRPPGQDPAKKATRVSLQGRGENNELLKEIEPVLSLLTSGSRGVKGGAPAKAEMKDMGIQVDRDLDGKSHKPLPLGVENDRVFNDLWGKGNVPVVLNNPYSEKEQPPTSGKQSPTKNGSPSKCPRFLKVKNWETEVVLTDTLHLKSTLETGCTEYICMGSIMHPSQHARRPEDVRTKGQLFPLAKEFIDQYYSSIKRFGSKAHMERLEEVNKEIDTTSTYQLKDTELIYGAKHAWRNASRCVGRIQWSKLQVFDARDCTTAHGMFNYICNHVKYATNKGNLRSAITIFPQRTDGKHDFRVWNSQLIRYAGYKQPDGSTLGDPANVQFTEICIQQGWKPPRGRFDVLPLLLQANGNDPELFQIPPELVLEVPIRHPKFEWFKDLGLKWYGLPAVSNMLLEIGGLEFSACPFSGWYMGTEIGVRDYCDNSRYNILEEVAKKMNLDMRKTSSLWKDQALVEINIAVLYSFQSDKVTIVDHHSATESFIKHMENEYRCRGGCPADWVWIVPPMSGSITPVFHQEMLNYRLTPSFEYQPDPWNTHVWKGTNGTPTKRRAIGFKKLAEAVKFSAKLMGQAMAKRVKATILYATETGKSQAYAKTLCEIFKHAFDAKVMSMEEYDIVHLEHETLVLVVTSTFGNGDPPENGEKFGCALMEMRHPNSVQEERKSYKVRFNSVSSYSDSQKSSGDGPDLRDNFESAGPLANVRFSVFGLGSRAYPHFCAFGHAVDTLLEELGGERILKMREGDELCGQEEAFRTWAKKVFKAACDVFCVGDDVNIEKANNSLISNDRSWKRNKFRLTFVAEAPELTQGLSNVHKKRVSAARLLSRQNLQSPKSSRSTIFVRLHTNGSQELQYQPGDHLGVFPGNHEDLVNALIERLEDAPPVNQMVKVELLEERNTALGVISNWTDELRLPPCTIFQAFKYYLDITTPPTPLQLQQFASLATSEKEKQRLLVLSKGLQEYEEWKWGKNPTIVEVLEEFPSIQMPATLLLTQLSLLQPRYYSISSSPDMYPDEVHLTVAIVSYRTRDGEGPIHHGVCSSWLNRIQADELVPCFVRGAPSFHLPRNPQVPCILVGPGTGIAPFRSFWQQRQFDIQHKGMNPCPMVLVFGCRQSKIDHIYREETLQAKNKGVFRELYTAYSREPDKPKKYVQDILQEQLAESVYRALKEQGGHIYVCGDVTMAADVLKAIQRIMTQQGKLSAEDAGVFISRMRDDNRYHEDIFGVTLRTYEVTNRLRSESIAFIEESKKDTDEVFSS
Chain of eNOS (Rat) (Q62600 2-1202): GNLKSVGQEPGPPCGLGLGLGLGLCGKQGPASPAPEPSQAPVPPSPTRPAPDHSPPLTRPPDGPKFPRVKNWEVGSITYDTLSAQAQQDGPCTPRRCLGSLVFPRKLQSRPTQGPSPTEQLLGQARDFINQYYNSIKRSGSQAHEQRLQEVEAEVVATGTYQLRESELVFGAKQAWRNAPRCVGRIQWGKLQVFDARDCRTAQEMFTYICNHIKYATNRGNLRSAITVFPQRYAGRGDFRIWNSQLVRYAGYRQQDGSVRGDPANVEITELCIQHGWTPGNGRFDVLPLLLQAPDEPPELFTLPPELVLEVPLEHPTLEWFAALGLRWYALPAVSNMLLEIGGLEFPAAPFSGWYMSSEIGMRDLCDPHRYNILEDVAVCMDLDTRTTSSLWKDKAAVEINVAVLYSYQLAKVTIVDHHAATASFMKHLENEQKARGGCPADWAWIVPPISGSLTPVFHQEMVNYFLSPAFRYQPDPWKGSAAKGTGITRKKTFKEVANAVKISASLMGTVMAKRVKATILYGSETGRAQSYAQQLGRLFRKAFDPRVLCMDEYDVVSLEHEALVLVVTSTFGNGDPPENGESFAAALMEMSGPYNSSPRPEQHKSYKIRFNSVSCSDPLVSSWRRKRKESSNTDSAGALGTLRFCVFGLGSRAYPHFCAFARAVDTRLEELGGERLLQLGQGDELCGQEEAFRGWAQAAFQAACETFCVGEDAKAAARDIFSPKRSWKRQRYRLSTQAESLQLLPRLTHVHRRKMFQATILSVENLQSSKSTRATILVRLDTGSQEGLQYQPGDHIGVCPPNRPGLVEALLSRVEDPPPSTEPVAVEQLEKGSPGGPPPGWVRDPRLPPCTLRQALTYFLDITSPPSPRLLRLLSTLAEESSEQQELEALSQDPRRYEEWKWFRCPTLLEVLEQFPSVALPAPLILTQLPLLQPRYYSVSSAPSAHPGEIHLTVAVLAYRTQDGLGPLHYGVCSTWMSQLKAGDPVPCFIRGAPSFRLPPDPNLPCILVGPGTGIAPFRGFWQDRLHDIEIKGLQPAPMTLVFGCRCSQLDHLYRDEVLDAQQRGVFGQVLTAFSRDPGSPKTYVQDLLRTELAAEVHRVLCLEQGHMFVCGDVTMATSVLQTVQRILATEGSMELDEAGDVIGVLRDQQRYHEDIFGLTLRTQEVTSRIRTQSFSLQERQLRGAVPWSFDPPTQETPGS
Chain of Nitric oxide synthase (endothelial, human recombinant) eNOS (P29474 2-1203): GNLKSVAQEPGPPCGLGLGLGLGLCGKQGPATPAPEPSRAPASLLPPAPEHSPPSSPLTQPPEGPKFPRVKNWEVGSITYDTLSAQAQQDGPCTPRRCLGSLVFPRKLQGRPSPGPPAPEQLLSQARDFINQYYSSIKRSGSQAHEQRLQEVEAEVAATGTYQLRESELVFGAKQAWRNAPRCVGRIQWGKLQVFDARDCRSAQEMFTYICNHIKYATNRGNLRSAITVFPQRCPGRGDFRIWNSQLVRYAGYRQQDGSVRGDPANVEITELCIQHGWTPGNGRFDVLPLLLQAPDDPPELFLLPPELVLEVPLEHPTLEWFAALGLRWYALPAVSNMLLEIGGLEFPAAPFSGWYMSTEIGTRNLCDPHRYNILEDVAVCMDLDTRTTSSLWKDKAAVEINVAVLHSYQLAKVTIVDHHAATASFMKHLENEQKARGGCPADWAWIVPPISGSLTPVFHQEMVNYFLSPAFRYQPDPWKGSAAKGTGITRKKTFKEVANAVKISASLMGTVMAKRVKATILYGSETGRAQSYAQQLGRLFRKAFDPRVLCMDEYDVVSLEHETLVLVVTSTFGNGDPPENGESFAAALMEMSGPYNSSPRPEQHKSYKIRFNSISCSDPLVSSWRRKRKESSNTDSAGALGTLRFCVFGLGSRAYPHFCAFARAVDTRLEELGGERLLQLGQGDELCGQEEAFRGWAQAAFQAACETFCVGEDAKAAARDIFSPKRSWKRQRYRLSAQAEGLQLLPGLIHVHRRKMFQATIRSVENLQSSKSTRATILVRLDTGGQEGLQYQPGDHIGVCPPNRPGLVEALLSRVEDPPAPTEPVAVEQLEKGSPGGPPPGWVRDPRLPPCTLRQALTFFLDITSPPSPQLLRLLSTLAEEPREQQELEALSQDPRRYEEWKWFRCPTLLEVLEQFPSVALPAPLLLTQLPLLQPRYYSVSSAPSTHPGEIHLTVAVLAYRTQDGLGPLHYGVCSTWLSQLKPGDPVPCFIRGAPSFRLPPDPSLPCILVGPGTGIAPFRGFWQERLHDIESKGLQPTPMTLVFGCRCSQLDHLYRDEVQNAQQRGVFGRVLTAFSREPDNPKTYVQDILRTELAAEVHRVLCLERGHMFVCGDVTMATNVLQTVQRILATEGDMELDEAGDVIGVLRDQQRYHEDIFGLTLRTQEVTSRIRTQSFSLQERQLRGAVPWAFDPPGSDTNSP
Chain of Recombinant human inducible NOS (iNOS) (P35228 whole entry): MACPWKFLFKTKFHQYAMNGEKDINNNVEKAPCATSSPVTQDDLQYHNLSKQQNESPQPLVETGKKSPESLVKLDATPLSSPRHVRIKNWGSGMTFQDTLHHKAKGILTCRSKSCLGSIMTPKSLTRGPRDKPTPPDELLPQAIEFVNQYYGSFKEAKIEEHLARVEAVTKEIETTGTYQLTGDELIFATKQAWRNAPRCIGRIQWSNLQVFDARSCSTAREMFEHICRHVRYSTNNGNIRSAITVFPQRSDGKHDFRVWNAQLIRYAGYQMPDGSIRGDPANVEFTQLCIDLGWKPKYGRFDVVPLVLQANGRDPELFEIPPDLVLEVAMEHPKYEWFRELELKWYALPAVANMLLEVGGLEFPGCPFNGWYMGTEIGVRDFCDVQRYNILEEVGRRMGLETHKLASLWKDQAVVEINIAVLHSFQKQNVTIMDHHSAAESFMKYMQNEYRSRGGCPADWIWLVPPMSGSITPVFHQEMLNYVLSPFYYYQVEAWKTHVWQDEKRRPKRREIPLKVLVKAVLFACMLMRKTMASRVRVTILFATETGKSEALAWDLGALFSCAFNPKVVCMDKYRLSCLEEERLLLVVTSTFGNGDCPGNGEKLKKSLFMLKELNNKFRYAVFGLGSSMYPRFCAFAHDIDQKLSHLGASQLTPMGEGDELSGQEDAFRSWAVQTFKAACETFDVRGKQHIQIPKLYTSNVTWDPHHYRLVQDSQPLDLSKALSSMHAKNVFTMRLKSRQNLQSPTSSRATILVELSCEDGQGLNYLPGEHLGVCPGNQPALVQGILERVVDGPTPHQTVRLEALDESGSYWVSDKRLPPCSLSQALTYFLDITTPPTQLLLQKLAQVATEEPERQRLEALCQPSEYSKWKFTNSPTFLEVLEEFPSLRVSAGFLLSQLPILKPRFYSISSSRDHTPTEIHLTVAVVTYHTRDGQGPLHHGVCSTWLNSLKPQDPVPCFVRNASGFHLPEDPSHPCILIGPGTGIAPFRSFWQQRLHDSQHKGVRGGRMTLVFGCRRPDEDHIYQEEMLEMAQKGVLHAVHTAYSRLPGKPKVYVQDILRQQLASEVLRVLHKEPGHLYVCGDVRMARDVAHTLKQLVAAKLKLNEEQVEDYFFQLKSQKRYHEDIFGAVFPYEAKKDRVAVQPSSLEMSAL

CN1CCCC1CCN1CCCc2cc(NC(=N)c3cccs3)ccc21 (single isomer, unassigned) [Example 23, N-(1-(2-(1-Methylpyrrolidin-2-yl)ethyl)-1,2,3,4-tetrahydroquinolin-6-yl)thiophene-2-carboximidamide]
Selectivity eNOS/nNOS ([1]; human enzymes, ratio of eNOS IC50 to nNOS IC50): 157
IC50 ([1]; human recombinant nNOS, values without parentheses, read-out: hnNOS IC50): 0.26 µM
IC50 [2]: 41 µM
IC50 [3]: > 100 µM
Selectivity eNOS/nNOS (rodent data in parentheses) (nNOS (Rat)): (>434)
IC50 (eNOS (Rat)): > 100 µM
antihyperalgesic effect in the Chung model [4]: clear antihyperalgesic effect
antiallodynic effect in the Chung model [5]: antiallodynic effect
hindpaw allodynia after inflammatory soup (IS) ([6]; 30 mg/kg p.o. 15 minutes prior to IS): reverses the development of hindpaw allodynia

COC(=O)[C@@H](N)CCCNC(=N)N[N+](=O)[O-] [L-NAME, N^G-Nitro-L-arginine methyl ester]
patient mortality [7]: 27%

CNC(=N)NCCC[C@H](N)C(=O)O [L-NMMA, N^G-monomethyl-L-arginine]
hindpaw allodynia after inflammatory soup (IS) ([6]; 10 mg/kg i.v 15 minutes prior to IS): reverses the development of hindpaw allodynia
response rate (migraine patients [8]): 67%
survival rate [9]: 72%

C/C1=C2/[N-][C@H]([C@H](CC(N)=O)[C@@]2(C)CCC(=O)NC[C@@H](C)OP(=O)([O-])O[C@H]2[C@@H](O)[C@@H](n3cnc4cc(C)c(C)cc43)O[C@@H]2CO)[C@]2(C)N=C(/C(C)=C3N=C(/C=C4N=C1[C@@H](CCC(N)=O)C\4(C)C)[C@@H](CCC(N)=O)[C@]\3(C)CC(N)=O)[C@@H](CCC(N)=O)[C@]2(C)CC(N)=O.[Co+3].[OH-] [hydroxycobalamin]
patients with a reduction in the frequency of migraine attack of 50% (migraine patients [10]): 53%
